Test results as given in patent US20230149401A1 (priority 2020, published 2023).

Test system: HIV particles pseudotyped with SARS-CoV-2 S
Type: cell-based

CCN(CC)CCCC(C)Nc1ccnc2cc(Cl)ccc12 (stereo not shown) [chloroquine, reference compound]
Entry of pseudotyped SARS-CoV-2 and its μS1/S2 mutant: efficiently blocked entry
